Data taken from US6911209B1, “Method of treating sick sinus syndrome with levosimendan” (Orion Corporation, priority 1999, dated 2005).

Test system: heart rhythm of a patient
Experiment: Clinical data: oral levosimendan in a patient with wandering atrial pacemaker, first degree AV block, junctional rhythm
Format: in vivo, human
Protocol: The underlying heart rhythm of a patient on intravenous milrinone was wandering atrial pacemaker with a first degree AV block alternating with a junctional rhythm and sinus rhythm. The overall heart rate was around 70 bpm. Because of failure to wean the milrinone the patient was entered into oral levosimendan first at 1 mg followed by 2 mg and subsequently by 4 mg qd. […] Their levosimendan dose was reduced to 2 mg and maintained at that dose during the taper of intravenous milrinone. […] Milrinone was tapered off and the patient could be transferred out of the intensive care unit. The patient's dose of levosimendan was continued at 1 mg three times a day.

`CC1CC(=O)NN=C1c1ccc(NN=C(C#N)C#N)cc1` (single isomer, unassigned; (-)) [levosimendan, (−)-[[4-(1,4,5,6-tetrahydro-4-methyl-6-oxo-3-pyridazinyl)phenyl]hydrazono]propanedinitrile] was tested, and the cardiac rhythm (levosimendan 2 mg during taper of intravenous milrinone) was “regularize with a vast majority of the beats being sinus node in origin”, the overall heart rate (levosimendan dose reduced to 2 mg, maintained during taper of intravenous milrinone) was 80-85 bpm and the heart rate (oral levosimendan 1 mg, then 2 mg, then 4 mg qd, patient on intravenous milrinone, baseline around 70 bpm) was “over 90 bpm”.
